# According to patent publication US20250195490A1, “ALPHA-METHYLENE AND AMINOMETHYL LACTONES AND LACTAMS FOR TREATMENT OF CLOSTRIDIOIDES DIFFICILE INFECTION (CDI)” (Purdue Research Foundation, priority 2022, published 2025):
# Where two headings read alike, the source gives them in different places.
# What was measured:
# Bi. longum = test: MIC against human normal gut microbiota: Bifidobacterium longum; assay type: cell-based
# Excerpt: (§1) The activity of the selected lactones against the human gut microbiota was also examined. Microbiota interfere with C. difficile's ability to colonize the gastrointestinal tract and subsequently cause infection. Many antibiotics inhibit/kill the endogenous microflora, which permits enhanced colonization by C. difficile and infection. Three different bacterial species that are present in the gut microflora were used in this experiment; Bifidobacterium (anaerobic Gram-positive bacteria), Bacteroides (anaerobic Gram-negative bacteria) and Lactobacillus (microaerophilic Gram-positive bacteria). Ideal compounds/drugs are those with selective antibacterial activity against C. difficile so as to protect the indigenous microflora present in the GI tract from being damaged/killed (which will exacerbate infections caused by C. difficile).
# (§2) Bifidobacterium and Bacteroides were first grown for 48 hours at 37° C., anaerobically, using brain heart infusion supplemented (BHIS) agar (brain heart infusion agar supplemented with hemin, vitamin K and L-cysteine). Lactobacillus was cultivated on MRS agar and incubated in the presence of 5% CO2 for 48 hours at 37° C. Each bacterium was suspended in phosphate-buffered saline (PBS) to achieve 0.5 McFarland standard and subsequently diluted in brain heart infusion supplemented broth (for Bifidobacterium and Bacteroides) or in MRS broth (for Lactobacillus) to achieve a bacterial inoculum of approximately 5×10^5 CFU/mL. Bacteria were then seeded in 96-well plates containing serial dilutions of the compounds and incubated for 48 hours. MICs reported in Table 4 are the minimum concentration of compound/control drug that inhibited the visual growth of bacteria.
# L. gasseri = test: MIC against human normal gut microbiota: L. gasseri; assay type: cell-based, Lactobacillus gasseri
# Excerpt: as §1, §2
# MRSA (USA300) = test: microbe, parasite or virus in culture; assay type: cell-based, Staphylococcus aureus
# Protocol: (§3) Method: The minimum inhibitory concentration (MIC) of the compounds and control drugs, linezolid (antibiotic), vancomycin (antibiotic), 5-fluorocytosine (5-FC, antifungal drug), and fluconazole (antifungal drug) was determined using the broth microdilution method according to the guidelines outlined by the Clinical and Laboratory Standards Institute (CLSI) against clinically relevant bacterial (methicillin-resistant Staphylococcus aureus (MRSA), vancomycin-resistant Enterococcus faecalis (VRE), vancomycin-resistant Enterococcus faecium (VRE), Clostridioides difficile and Escherichia coli) and fungal (Candida albicans) strains. A solution equivalent to 0.5 McFarland standard was prepared from each strain and diluted in cation-adjusted Mueller-Hinton broth (for S. aureus and E. coli), tryptone soy broth (for E. faecalis), or brain heart infusion broth (for E. faecium) to achieve a bacterial inoculum of about 5×10^5 CFU/mL. C. difficile strains were cultured in brain heart infusion broth supplemented with hemin and vitamin K. C. albicans was diluted in RPMI medium supplemented with 3-(N-morpholino) propanesulfonic acid to achieve a fungal concentration of about 1.5×10^3 CFU/mL. Compounds and control drugs were added in the first row of the 96-well plates and diluted with media containing bacteria (to achieve a concentration gradient ranging from 128 to 1 μg/mL). For MRSA, VRE, and E. coli strains, plates were then incubated aerobically at 37° C. for at least 18 hours. C. albicans was incubated aerobically at 37° C. for 24 hours. Plates containing C. difficile were incubated anaerobically at […] for 48 hours.
# Ba. fragilis = test: MIC against human normal gut microbiota: Bacteroides fragilis; assay type: cell-based
# Excerpt: as §1, §2
# Clostridioides difficile = test: MIC by broth microdilution against Clostridioides difficile (Table 1); assay type: cell-based
# Protocol: as §3
# L. crispatus = test: MIC against human normal gut microbiota: L. crispatus; assay type: cell-based, Lactobacillus crispatus
# Excerpt: as §1, §2
# Ba. dorsei = test: MIC against human normal gut microbiota: Bacteroides dorsei; assay type: cell-based
# Excerpt: as §1, §2
# Bi. breve = test: MIC against human normal gut microbiota: Bifidobacterium breve; assay type: cell-based
# Excerpt: as §1, §2
# L. reuteri = test: MIC against human normal gut microbiota: L. reuteri; assay type: cell-based, Lactobacillus reuteri
# Excerpt: as §1, §2
# [1] = tested on: clinically important Clostridioides difficile strains; test: MIC against clinically important Clostridioides difficile strains; assay type: cell-based
# Protocol: (§4) The antibacterial activity of compounds 48, 50, 51, 61 and 85 against a panel of Clostridioides difficile strains was evaluated. A bacterial solution equivalent to 0.5 McFarland standard was prepared and diluted in brain heart infusion broth supplemented with hemin and vitamin K. Compounds and control drugs were added in the first row of 96-well plates and serially diluted with media containing bacteria (to achieve a concentration gradient ranging from 128 to 1 μg/mL). Plates were then incubated anaerobically at […] for 48 hours.
# L. casei = test: MIC against human normal gut microbiota: L. casei; assay type: cell-based, Lactobacillus casei
# Excerpt: as §1, §2
# [2] = tested on: hypervirulent Clostridioides difficile strains; test: MIC against hypervirulent Clostridioides difficile strains; assay type: cell-based
# Protocol: as §4
smiles,measurement,setting,value
C=C1C(=O)O[C@H](c2ccccc2O)[C@@H]1c1cccc(C#N)c1 (racemic) [Compound 50],MIC,Bi. longum; Bi. longum HM 848,>128 mg/L
same,MIC,L. gasseri; L. gasseri HM 407,>128 mg/L
same,MIC MRSA (USA300),"MRSA (USA300); aerobic, 37° C., at least 18 hours",>128 mg/L
same,MIC,Ba. fragilis; Ba. fragilis HM 709,>128 mg/L
same,MIC,Ba. fragilis; Ba. fragilis HM 710,>128 mg/L
same,MIC,Ba. fragilis; Ba. fragilis HM 711,>128 mg/L
same,MIC,Ba. fragilis; Ba. fragilis HM 714,>128 mg/L
same,MIC Clostridioides difficile,"Clostridioides difficile; anaerobic, 48 hours, strain BAA-1870",8 mg/L
same,MIC,L. crispatus; L. crispatus HM 375,>128 mg/L
same,MIC,L. crispatus; L. crispatus HM 421,>128 mg/L
same,MIC,Ba. dorsei; Ba. dorsei HM 29,>128 mg/L
same,MIC,Ba. dorsei; Ba. dorsei HM 717,>128 mg/L
same,MIC,Bi. breve; Bi. breve HM 856,>128 mg/L
same,MIC,L. reuteri; L. reuteri HM 120,>128 mg/L
same,MIC,[1]; CD strain 16,128 mg/L
same,MIC,[1]; CD strain 18,32 mg/L
same,MIC,[1]; CD strain 19,128 mg/L
same,MIC,[1]; CD strain 1801,128 mg/L
same,MIC,[1]; CD strain 43255,16 mg/L
same,MIC,[1]; CD strain P6,128 mg/L
same,MIC,[1]; CD strain P7,128 mg/L
same,MIC,[1]; CD strain P13,32 mg/L
same,MIC,[1]; CD strain P19,32 mg/L
same,MIC,L. casei; L. casei HM 334,>128 mg/L
same,MIC,[2]; CD strain 81,>128 mg/L
same,MIC,[2]; CD strain 82,64 mg/L
same,MIC,[2]; CD strain 83,128 mg/L
same,MIC,[2]; CD strain 84,>128 mg/L
same,MIC,[2]; CD strain 85,>128 mg/L
same,MIC,[2]; CD strain 86,128 mg/L
same,MIC,[2]; CD strain 87,128 mg/L
same,MIC,[2]; CD strain 90,128 mg/L
same,MIC,[2]; CD strain 49279,>128 mg/L
same,MIC,[2]; CD strain 49287,128 mg/L
same,MIC,[2]; CD strain 49291,64 mg/L
"CN[C@H](CC(C)C)C(=O)N[C@H]1C(=O)N[C@@H](CC(N)=O)C(=O)N[C@H]2C(=O)N[C@H]3C(=O)N[C@H](C(=O)N[C@H](C(=O)O)c4cc(O)cc(O)c4-c4cc3ccc4O)[C@H](O)c3ccc(c(Cl)c3)Oc3cc2cc(c3O[C@@H]2O[C@H](CO)[C@@H](O)[C@H](O)[C@H]2O[C@H]2C[C@](C)(N)[C@H](O)[C@H](C)O2)Oc2ccc(cc2Cl)[C@H]1O [Vancomycin, reference compound]",MIC,Bi. longum; Bifidobacterium longum,64 mg/L
same,MIC,L. gasseri; Lactobacillus gasseri,> 128 mg/L
same,MIC,"MRSA (USA300); Staphylococcus aureus, 18 h, read-out: MIC MRSA (USA300)",1 mg/L
same,MIC,"Ba. fragilis; Bacteroides fragilis, Ba. fragilis HM 710",16 mg/L
same,MIC,"Ba. fragilis; Bacteroides fragilis, Ba. fragilis HM 711",16 mg/L
same,MIC,"Ba. fragilis; Bacteroides fragilis, Ba. fragilis HM 714",16 mg/L
same,MIC,"Ba. fragilis; Bacteroides fragilis, Ba. fragilis HM 709",64 mg/L
same,MIC,"Clostridioides difficile; Clostridioides difficile, BAA1870, 48 h, read-out: MIC Clostridioides difficile",1 mg/L
same,MIC,L. crispatus; L. crispatus HM 375,≤1 mg/L
same,MIC,L. crispatus; Lactobacillus crispatus,≤ 1 mg/L
same,MIC,"Ba. dorsei; Bacteroides, Ba. dorsei HM 717",8 mg/L
same,MIC,"Ba. dorsei; Bacteroides, Ba. dorsei HM 29",128 mg/L
same,MIC,Bi. breve; Bifidobacterium breve,≤ 1 mg/L
same,MIC,L. reuteri; Limosilactobacillus reuteri,> 128 mg/L
same,MIC,"[1]; Clostridioides difficile, CD strain 16, read-out: MIC",1 mg/L
same,MIC,"[1]; Clostridioides difficile, CD strain 18, read-out: MIC",0.5 mg/L
same,MIC,"[1]; Clostridioides difficile, CD strain 19, read-out: MIC",1 mg/L
same,MIC,"[1]; Clostridioides difficile, CD strain 1801, read-out: MIC",1 mg/L
same,MIC,"[1]; Clostridioides difficile, CD strain 43255, read-out: MIC",1 mg/L
same,MIC,"[1]; Clostridioides difficile, CD strain P6, read-out: MIC",1 mg/L
same,MIC,"[1]; Clostridioides difficile, CD strain P7, read-out: MIC",1 mg/L
same,MIC,"[1]; Clostridioides difficile, CD strain P13, read-out: MIC",1 mg/L
same,MIC,"[1]; Clostridioides difficile, CD strain P19, read-out: MIC",1 mg/L
same,MIC,L. casei; Lacticaseibacillus casei,> 128 mg/L
same,MIC,"[2]; Clostridioides difficile, CD strain 81",0.25 mg/L
same,MIC,"[2]; Clostridioides difficile, CD strain 82",0.5 mg/L
same,MIC,"[2]; Clostridioides difficile, CD strain 83",0.5 mg/L
same,MIC,"[2]; Clostridioides difficile, CD strain 84",0.25 mg/L
same,MIC,"[2]; Clostridioides difficile, CD strain 85",2 mg/L
same,MIC,"[2]; Clostridioides difficile, CD strain 86",0.5 mg/L
same,MIC,"[2]; Clostridioides difficile, CD strain 87",0.5 mg/L
same,MIC,"[2]; Clostridioides difficile, CD strain 90",1 mg/L
same,MIC,"[2]; Clostridioides difficile, CD strain 49279",1 mg/L
same,MIC,"[2]; Clostridioides difficile, CD strain 49287",0.25 mg/L
same,MIC,"[2]; Clostridioides difficile, CD strain 49291",0.25 mg/L
